Measured values: patent publication US9278958B2, “Anti-cancer compounds” (KATHOLIEKE UNIVERSITEIT LEUVEN, priority 2012, dated 2016)
Read-outs that look alike come from different tables or passages of the source.

What was measured:
CEM cells = test: Cytostatic assay, CEM; type: cell-based; conditions: for Ratio (tumor cell selectivity): ratio IC50 HeLa / IC50 CEM
Description: (§1) To each well of a 96-well microtiter plate were added 5-7.5×10^4 cells and a given amount of the test compound. The cells were allowed to proliferate for 48 h to 96 h (depending on the nature of the cell line) at 37° C. in a humidified CO2-controlled atmosphere. At the end of the incubation period, the cells were counted in a Coulter Counter (Coulter Electronics Ltd, Harpenden Herts, United Kingdom).

[1] = test system: HeLa cervix carcinoma cells; test: Cytostatic assay, HeLa; type: cell-based, human
Description: as §1

[2] = Homo sapiens, CCRF-CEM, CEM cells, Table 7, 5-arylthiomethyl-substituted 2-amino-3-carboxymethylthiophenes, read-out: IC50 (μM) CEM
[3] = Homo sapiens, CCRF-CEM, Table 1b, read-out: IC50 (μM) (CEM)
[4] = Homo sapiens, HeLa cells, Table 7, 5-arylthiomethyl-substituted 2-amino-3-carboxymethylthiophenes, read-out: IC50 (μM) HeLa
[5] = Homo sapiens, Table 1b, read-out: IC50 (μM) (HeLa)
[6] = Homo sapiens, CCRF-CEM, Table 1a, read-out: IC50 μM (CEM)
[7] = CEM cells, Table 7, 5-arylthiomethyl-substituted 2-amino-3-carboxymethylthiophenes, read-out: IC50 (μM) CEM
[8] = Table 1b, read-out: IC50 (μM) (CEM)
[9] = HeLa cells, Table 7, 5-arylthiomethyl-substituted 2-amino-3-carboxymethylthiophenes, read-out: IC50 (μM) HeLa
[10] = Table 1b, read-out: IC50 (μM) (HeLa)
[11] = Homo sapiens, CCRF-CEM, CEM cells, Table 6, 5-alkyl-substituted 2-aminothiophenes, read-out: IC50 (μM) CEM
[12] = Homo sapiens, HeLa cells, Table 6, 5-alkyl-substituted 2-aminothiophenes, read-out: IC50 (μM) HeLa

Molecule	IC50 (CEM cells; [2])	Ratio (tumor cell selectivity) (CEM cells; Table 7)	IC50 [1, 4]	also measured
COC(=O)c1cc(CSc2ccc3ccccc3c2)sc1N [TJ113, Methyl 2-amino-5-((naphthalen-2-ylthio)methyl)thiophene-3-carboxylate]	0.9 µM	82	74 µM	IC50 (CEM cells; [3]): 0.9 ± 0.04 µM; IC50 [1, 5]: 74 ± 6 µM
CNC(=O)c1cc(CCc2ccc(OC)cc2)sc1N [TJ19, N-Methyl 2-amino-5-(2-(4-methoxyphenyl)ethyl)thiophene-3-carboxamide]	–	–	–	IC50 (CEM cells; [6]): 31 µM
COC(=O)c1cc(CCCSC2CCCCC2)sc1N [TJ170, Methyl 2-amino-5-(3-(cyclohexylthio)propyl)thiophene-3-carboxylate]	0.57 µM	96	55 µM	–
COC(=O)c1cc(CSc2ccc(Cl)cc2)sc1N [Compound D4, Methyl 2-amino-5-((4-chlorophenylthio)methyl)thiophene-3-carboxylate]	1.7 µM	25	42 µM	–
COC(=O)c1cc(CSc2cccc(C)c2)sc1N [TJ54P, Methyl 2-amino-5-(2-(3-methylphenyl)sulfanylmethyl)thiophene-3-carboxylate]	–	26	–	IC50 (CEM cells; [7]): 4.1 µM; IC50 (CEM cells; [8]): 4.1 ± 1.7 µM; IC50 [1, 9]: 108 µM; IC50 [1, 10]: 108 µM
COC(=O)c1cc(CSc2ccc(F)cc2)sc1N [Compound D10, Methyl 2-amino-5-((4-fluorophenylthio)methyl)thiophene-3-carboxylate]	3.1 µM	33	102 µM	–
COC(=O)c1cc(CSc2ccc(C)cc2)sc1N [TJ55, Methyl 2-amino-5-((4-methylphenylthio)methyl)thiophene-3-carboxylate]	1.5 µM	48	72 µM	IC50 (CEM cells; [3]): 1.5 ± 0.3 µM; IC50 [1, 5]: 72 ± 30 µM
COC(=O)c1ccccc1SCc1cc(C(=O)OC)c(N)s1 [Compound D7, Methyl 2-amino-5-((2-(methoxycarbonyl)phenylthio)methyl)thiophene-3-carboxylate]	27 µM	7	190 µM	–
COC(=O)c1cc(CSc2cccc(C(=O)O)c2)sc1N [TJ53, 3-((5-amino-4-(methoxycarbonyl)thiophen-2-yl)methylthio)benzoic acid]	124 µM	≦1	75 µM	–
CNc1sc(CCc2ccc(OC)cc2)cc1C(=O)OC [TJ6A, Methyl 2-methylamino-5-(2-(4-methoxyphenyl)ethyl)thiophene-3-carboxylate]	–	–	–	IC50 (CEM cells; [6]): 23 µM
COC(=O)c1csc(CCc2ccc(OC)cc2)c1 [TJ7, Methyl 5-(2-(4-methoxyphenyl)ethyl)thiophene-3-carboxylate]	–	–	–	IC50 (CEM cells; [6]): 87 µM
COC(=O)c1cc(CSc2ccncc2)sc1N [TJ129, Methyl 2-amino-5-((pyridin-4-ylthio)methyl)thiophene-3-carboxylate]	111 µM	1	93 µM	–
CCc1cc(C(=O)OC)c(N)s1 [TJ157, Methyl 2-amino-5-ethylthiophene-3-carboxylate]	–	–	–	IC50 (CEM cells; [11]): 175 µM; Ratio (tumor cell selectivity) (CEM cells; Table 6): 1; IC50 [1, 12]: 180 µM
COC(=O)c1cc(CSc2cccc(C)c2)sc1N1C(=O)c2ccccc2C1=O [TJ54SM, Methyl 2-phthalimido-5-(2-(3-methylphenyl)sulfanylmethyl)thiophene-3-carboxylate]	–	–	–	IC50 (CEM cells; [8]): 6.9 ± 0.7 µM; IC50 [1, 10]: 121 ± 13 µM
COC(=O)c1cc(CSc2ccccc2OC)sc1N [Compound D6, Methyl 2-amino-5-((2-methoxyphenylthio)methyl)thiophene-3-carboxylate]	17 µM	6	94 µM	–
COC(=O)c1cc(CSC2CCCC2)sc1N [TJ179, Methyl 2-amino-5-(cyclopentylthiomethyl)thiophene-3-carboxylate]	1.8 µM	44	80 µM	–
COC(=O)c1cc(CSc2ccc(OC)cc2)sc1N [TJ130, Methyl 2-amino-5-((4-methoxyphenylthio)methyl)thiophene-3-carboxylate]	3.9 µM	23	88 µM	IC50 (CEM cells; [3]): 3.9 ± 1.4 µM; IC50 [1, 5]: 88 ± 10 µM
COC(=O)c1cc(CCCSc2ccc(OC)cc2)sc1N [TJ169, Methyl 2-amino-5-(3-(4-methoxyphenylthio)propyl)thiophene-3-carboxylate]	0.97 µM	61	59 µM	–
COc1ccc(CCc2cc(C(N)=O)c(N)s2)cc1 [TJ9, 2-Amino-5-(2-(4-methoxyphenyl)ethyl)thiophene-3-carboxamide]	–	–	–	IC50 (CEM cells; [6]): 39 µM

Molecule	IC50 (CEM cells; [2])	Ratio (tumor cell selectivity) (CEM cells; Table 7)	IC50 [1, 4]	also measured
COC(=O)c1cc(CSCc2ccccc2)sc1N [TJ57, Methyl 2-amino-5-(2-(phenyl)methylsulfanylmethyl)thiophene-3-carboxylate]	–	17	–	IC50 (CEM cells; [7]): 3.5 µM; IC50 (CEM cells; [8]): 3.5 ± 1.1 µM; IC50 [1, 9]: 61 µM; IC50 [1, 10]: 61 ± 38 µM
COC(=O)c1cc(Cc2ccccc2)sc1N [TJ109, Methyl 2-amino-5-benzylthiophene-3-carboxylate]	–	–	–	IC50 (CEM cells; [6]): 8.4 µM
CCCCSCc1cc(C(=O)OC)c(N2C(=O)c3ccccc3C2=O)s1 [TJ119, Methyl 2-phthalimido-5-(2-(butyl)sulfanylmethyl)thiophene-3-carboxylate]	–	–	–	IC50 (CEM cells; Table 1c, read-out: IC50 (μM) CEM): 6.6 ± 3.2 µM; IC50 ([1]; Table 1c, read-out: IC50 (μM) HeLa): 104 ± 1 µM
COC(=O)c1cc(CSc2ccccc2C)sc1N [Compound D3, Methyl 2-amino-5-(o-tolylthiomethyl)thiophene-3-carboxylate]	2 µM	36	71 µM	–
COC(=O)c1cc(CSC2CCCCC2)sc1N [Compound D8, Methyl 2-amino-5-(cyclohexylthiomethyl)thiophene-3-carboxylate]	2.1 µM	39	81 µM	–
COC(=O)c1cc(CSc2ccc(OC)cc2)sc1N1C(=O)c2ccccc2C1=O [TJ21, Methyl 2-phthalimido-5-(2-(4-methoxyphenyl)sulfanylmethyl)thiophene-3-carboxylate]	–	–	–	IC50 (CEM cells; [8]): 4.9 ± 1.4 µM; IC50 [1, 10]: 112 ± 2 µM
COC(=O)c1cc(CSCc2ccc(OC)cc2)sc1N1C(=O)c2ccccc2C1=O [TJ127, Methyl 2-phthalimido-5-(2-(4-methoxybenzyl)sulfanylmethyl)thiophene-3-carboxylate]	–	–	–	IC50 (CEM cells; [8]): 25 ± 8 µM; IC50 [1, 10]: 111 ± 20 µM
COC(=O)c1cc(CSCc2ccco2)sc1N [TJ117, Methyl 2-amino-5-((furan-2-ylmethylthio)methyl)thiophene-3-carboxylate]	4.9 µM	21	102 µM	IC50 (CEM cells; [3]): 4.9 ± 0.1 µM; IC50 [1, 5]: 102 ± 6 µM
COC(=O)c1cc(CSc2ccccc2N)sc1N [TJ122, Methyl 2-amino-5-((2-aminophenylthio)methyl)thiophene-3-carboxylate]	39 µM	1	46 µM	–
COC(=O)c1cc(CSc2ccccc2)sc1N [TJ4, Methyl 2-amino-5-(2-(phenyl)sulfanylmethyl)thiophene-3-carboxylate]	–	83	–	IC50 (CEM cells; [7]): 1.3 µM; IC50 (CEM cells; [8]): 1.3 ± 0.6 µM; IC50 [1, 9]: 108 µM; IC50 [1, 10]: 108 ± 7 µM
COC(=O)c1cc(CSCCc2ccccc2)sc1N [TJ187, Methyl 2-amino-5-(phenethylthiomethyl)thiophene-3-carboxylate]	1.2 µM	62	74 µM	–
COC(=O)c1cc(CCCCl)sc1N [TJ168D, Methyl 2-amino-5-(3-chloropropyl)thiophene-3-carboxylate]	–	–	–	IC50 (CEM cells; [11]): 26 µM; Ratio (tumor cell selectivity) (CEM cells; Table 6): 6; IC50 [1, 12]: 150 µM
2-Amino-5-(2-(4-methoxyphenyl)ethyl)thiophene-3-carboxylate [TJ8]	–	–	–	IC50 (CEM cells; Table 1a, read-out: IC50 μM (CEM)): 31 µM
COC(=O)c1cc(CSc2ccc([N+](=O)[O-])cc2)sc1N [TJ126, Methyl 2-amino-5-((4-nitrophenylthio)methyl)thiophene-3-carboxylate]	12 µM	1	16 µM	–
COC(=O)c1cc(CNc2ccc(OC)cc2)sc1N [TJ51, Methyl 2-amino-5-(2-(4-methoxyphenyl)aminomethyl)thiophene-3-carboxylate]	–	–	–	IC50 (CEM cells; [8]): 96 ± 16 µM; IC50 [1, 10]: 78 ± 15 µM
COC(=O)c1cc(CSCc2cccs2)sc1N [TJ118, Methyl 2-amino-5-((thiophen-2-ylmethylthio)methyl)thiophene-3-carboxylate]	3.3 µM	30	99 µM	IC50 (CEM cells; [3]): 3.3 ± 0.9 µM; IC50 [1, 5]: 99 ± 5 µM
COC(=O)c1cc(CSc2ccc(C(C)C)cc2)sc1N [TJ186, Methyl 2-amino-5-((4-isopropylphenylthio)methyl)thiophene-3-carboxylate]	0.46 µM	100	46 µM	–
COC(=O)c1cc(CCc2ccc(OC)cc2)sc1N(C)C [TJ6B, Methyl 2-dimethylamino-5-(2-(4-methoxyphenyl)ethyl)thiophene-3-carboxylate]	–	–	–	IC50 (CEM cells; [6]): 18 µM
